Patent US9963474B2, “Mitochondria-targeted dicarbonyl sequestering compounds” (MEDICAL RESEARCH COUNCIL, priority 2013, dated 2018)

Assays:
[1] = test system: BAECs; experiment: Quantification of MQE and QE in cells by LC-MS/MS; type: cell-based, bovine; conditions: 2 μM MitoG; for amounts of MQE and QE detected after exogenous methylglyoxal or glyoxal: 10 mM AG or 2 μM FCCP
Description: (A) and (B) BAECs were incubated with 2 μM MitoG for 1 h and sometimes supplemented with 10 mM AG or 2 μM FCCP. Methylglyoxal (A) or glyoxal (B) were then added, and after a further 3 h incubation the levels of MQE and QE in the cell layers were determined by LC-MS/MS relative to deuterated ISs. (C, D) BAECs were incubated in media containing low (5 mM) or high (30 mM) D-glucose with 2 μM MitoG for the times indicated. Levels of MQE (C) and QE (D) in the cell layers were determined by LC-MS/MS relative to deuterated ISs. Results are means±S.E. of four independent experiments. (E) BAECs were incubated for 4 h in the presence of 2 μM MitoG in media containing either 5 mM D-glucose (low), 30 mM D-glucose (high), 5 mM D-glucose/25 mM L-glucose (L-glucose), or 30 mM D-glucose/10 mM aminoguanidinium. Levels of MQE in the cell layers were determined by LC-MS/MS relative to deuterated ISs. (F) BAECs were incubated in media containing high (30 mM) D-glucose with 2 μM MitoG for 4 h with the indicated concentrations of the glyoxalase I inhibitor bromobenzyl glutathione cyclopentyl diester. Levels of MQE and QE in the cell layers were then determined by LC-MS/MS relative to deuterated ISs. Results are means±S.E. of three determinations. Results are means±S.E. of three (A, B) or four (C-E) independent experiments. *, P<0.05 or **, P<0.01, relative to untreated (A, B) or indicated (C-E) controls; ##, P<0.01 relative to cells treated with 250 μM 1,2-dicarbonyl.
For LC-MS/MS analysis of MitoG reaction products cells were incubated in T25 flasks (Nunc) with 2 μM MitoG at 37° C. Cell monolayers were washed (1 ml PBS), scraped into 1.5 ml PBS and pelleted by centrifugation (16,000 g for 2 min). The pellet was re-suspended in 250 μl 100% acetonitrile/0.1% spiked with deuterated internal standards (ISs) ([…] each of d15-MQE and d15-QE), vortexed and centrifuged (2×16,000 g for 15 min). Samples were dried under vacuum (Savant SpeedVac), re-suspended in 100 μl 20% acetonitrile/0.1% formic acid, vortexed, centrifuged (16,000 g for 10 min), transferred to silanised autosampler vials [Chromacol #1.5HRRV(S)], flushed and sealed under argon and then stored at −80° C. until LC-MS/MS analysis. Where specified, cells were subjected to acute glycaemia treatment and were incubated either in low glucose (5 mM D-glucose), high glucose (30 mM D-glucose), or in osmotic control medium (5 mM D-glucose+25 mM L-glucose) for 4 h.
LC-MS/MS analyses were carried out using a triple quadrupole mass spectrometer (Waters Xevo TQ-S) with an I-class Aquity LC system (Waters) attached. Samples were kept at 4° C. prior to injection by the autosampler of 10 μl into a 15 μl flow-through needle and RP-HPLC at 30° C. using a Luna 5 Phenyl-Hexyl column (1×50 mm, 5 μm; Phenomenex) with a Phenyl-Hexyl guard column (2×4 mm; Phenomenex). Buffers used were MS buffer A [0.1% (v/v) formic acid in water] and MS buffer B [95% acetonitrile/0.1% formic acid (both v/v)]. A gradient was run at […] as follows: 0-2 min—5% B; 2-3 min—5-25% B; 3-5 min—25-75% B; 5-7 min—75-100% B; 7-10 min—100% B; 10-12 min—100-5% B; 12-20 min—5% B. Eluant was diverted to waste from the mass spectrometer at 0-5 min and 16-20 min acquisition time using an in-line divert valve. […] Transitions used for quantification were as follows: MQE, 506>262; d15-MQE, 521>277; QE, 492>262 and d15-QE, 507>277. […]

[2] = test system: RLM respiring on glutamate/malate; experiment: Protection against dicarbonyl-induced respiratory depression in isolated RLM; parameters: species or system rat; conditions: 37° C.; for protection against methylglyoxal-induced respiratory depression: 0.5 mM methylglyoxal; for protection against glyoxal-induced respiratory depression: 5 mM glyoxal
Description: (§1) Isolated RLM respiring on glutamate/malate were incubated with MitoG, methoxyphenylenediamine (MP) or butylTPP for 2 min, followed by 0.5 mM methylglyoxal or 5 mM glyoxal for 5 min. ADP was then added and the rate of oxygen consumption monitored at 37° C. (see FIGS. 12A & 12B). C2C12 cells were pre-treated with MitoG, methoxyphenylenediamine (MP) or butylTPP for 1 h before exposure to 1 mM methylglyoxal or 5 mM glyoxal (see FIGS. 12C & 12D). Following an overnight incubation, cell survival was determined using the MTS assay. Similar experiments were conducted in BAECs pre-treated with MitoG, MP or butylTPP. For all experiments, concentrations of methylglyoxal and glyoxal used were chosen based on results from studies conducted prior to the protection assays. In these prior studies, RLM or cells were exposed to a range of dicarbonyl concentrations, and the phosphorylating rates of respiration or cell survival were evaluated. The results of these earlier experiments are shown in insets, and dicarbonyl concentrations that had caused significant respiratory depression or cell death were chosen for use in the protection assays. Data for all groups were normalized against untreated controls. For RLM, the rate of respiration by untreated controls was taken to be 100%; for cells, cell survival of untreated controls was taken to be 100%. Results are expressed as mean±S.E. of three independent experiments. MitoG was protective against methylglyoxal-induced respiratory depression and both methylglyoxal- and glyoxal-induced cell death in C2C12 cells and BAECs. […] In FIG. 12 the symbols *, ** respectively indicate that P<0.05 or P<0.01 relative to dicarbonyl-only groups; and the symbols +, ++ respectively indicate that P<0.05 or P<0.01 relative to untreated controls.

[3] = test system: C2C12 cells; experiment: Protection against dicarbonyl-induced cell death, C2C12, MTS assay; type: cell-based, mouse; conditions: pre-treated 1 h, overnight; for protection against methylglyoxal-induced cell death: C2C12, 1 mM methylglyoxal; for protection against glyoxal-induced cell death: C2C12, 5 mM glyoxal
Description: as §1

[4] = test system: BAECs; experiment: Protection against dicarbonyl-induced cell death, BAECs, MTS assay; type: cell-based, bovine; conditions: pre-treated 1 h, overnight
Description: as §1

[5] = test system: C57Bl6/J mice with STZ-induced Type I diabetes; experiment: STZ-induced Type I diabetes mouse model, diabetic complications in the heart; type: in vivo
Description: To determine the effects of MitoG-amide on diabetic complications in the heart a well-established mouse model of type I diabetes was used, based on destruction of the beta-cells in the pancreas by administration of the beta-cell toxin streptozotocin (STZ; obtainable from Selleck Chemicals, Munich, Germany). Mice that were 6-7 week old C57Bl6/J mice (>20 g) were administered STZ (50 mg/kg by intraperitoneal injection) on 5 consecutive days. The death of the beta-cells and the induction of the high blood glucose associated with Type I diabetes was confirmed by weekly blood glucose tests on mice tail vein blood sample. A blood glucose level >17 mmol/l was considered diabetic. For experiments, mice were divided into three groups: (a) control; (b) STZ-induced Type I diabetes; and (c) STZ-induced Type I diabetic animals treated with MitoG-amide (10 mg/kg body weight once per day via gavage). This was repeated for 12 weeks (FIG. 13). At the end of the protocol, mice underwent cardiac magnetic resonance imaging (MRI) measurement (FIG. 14) followed by left ventricular catheter-based Pressure/Volume (P/V) measurement (FIG. 15). The MRI and P/V loop measurements were performed on the same day and the MRI volume measures were used as correction for the P/V loop.
For the cardiac magnetic resonance imaging (MRI) measurement a standard cardiac MRI protocol with a 4.7T Bruker BioSpec system was performed 24 h after surgery. Anaesthesia was induced with 3% and maintained with 1.25% isoflurane in oxygen. Temperature was monitored with a rectal probe and maintained constant via a heated water blanket, respiration was monitored using a pillow connected to a piezoelectric transducer. Electrocardiogram (ECG) signals were monitored with neonatal graphite (3M) electrodes, placed over the front left and rear right paws.
A 12 cm diameter birdcage was used to transmit the signal and a 4 channel cardiac array coil was used for signal reception. The imaging protocol consisted of scout scans followed by ECG-gated fast imaging with steady state […] (FISP) slices (repetition time/echo time TR/TE 6/2.4 ms 13-20 frames, 3.5 cm field of view (FOV), 256 matrix, 1 mm slice thickness, bandwidth 64.1 kHz, flip angle (FA) 20°, 2 sampling average [number of excitations, NEX]), in the long-axis and in the short-axis to cover the whole heart. In post processing, volumes during different phases of the ECG were delineated and integrated over whole heart using Simpson's rule. Global functional parameters were obtained including ejection fraction, the fraction of blood ejected into the circulation during one heartbeat.
For the Pressure/Volume (P/V) measurement, left ventricular catheterization via the right carotid artery was carried out using a 1.2 F pressure-catheter (Scisense Inc., London, Canada).
The results of the long-term treatment of the STZ-induced Type I diabetes administered with MitoGamide on body weight, blood glucose and heart rate were compared with placebo-treated STZ mice and controls (FIG. 16). The blood glucose was measured on whole blood using Johnson and Johnson's OneTouch® Ultra Blood Glucose Monitoring System. The heart rate was measured during use of the P/V loop catheter and recorded.
To assess the effect of MitoGamide on the well-known detrimental effects of long-term hyperglycaemia in Type I diabetes heart function was measured by MRI and by P/V loop measurement (FIG. 17). Mice that were 6-7 week old C57Bl6/J mice (>20 g) were administered STZ (50 mg/kg by intraperitoneal injection) on 5 consecutive days. The death of the beta-cells and the induction of the high blood glucose associated with Type I diabetes was confirmed by weekly blood glucose tests on mice tail vein blood sample. A blood glucose level >17 mmol/l was considered diabetic. […]

[6] = 10 mg/kg once per day via gavage, 12 weeks
[7] = MRI, 10 mg/kg once per day via gavage
[8] = P/V loop, 10 mg/kg once per day via gavage

| Structure (SMILES) | amounts of MQE and QE detected after exogenous methylglyoxal or glyoxal [1] | protection against methylglyoxal-induced respiratory depression [2] | protection against glyoxal-induced respiratory depression [2] | protection against methylglyoxal-induced cell death [3] | protection against glyoxal-induced cell death [3] | protection against glyoxal-induced cell death [4] | protection against methylglyoxal-induced cell death [4] | also measured |
| --- | --- | --- | --- | --- | --- | --- | --- | --- |
| N=C(N)NN [AG, aminoguanidine] | reduced | – | – | – | – | – | – | formation of MQE under high glucose ([1]; 30 mM D-glucose/10 mM aminoguanidinium, 4 h): decreased |
| CCCCCCOc1ccc(N)c(N)c1 [HP, 4-Hexyloxybenzene-1,2-diamine] | – | not significantly protective | not significantly protective | not significantly protective | not significantly protective | not significantly protective | not significantly protective | – |
| NC(CCC(=O)NC(CSCc1ccc(Br)cc1)C(=O)NCC(=O)OC1CCCC1)C(=O)OC1CCCC1 (centres unmarked) [bromobenzyl glutathione cyclopentyl diester] | – | – | – | – | – | – | – | amount of MQE and QE under high glucose ([1]; high glucose, 4 h, glyoxalase I inhibitor): increased |
| CCCC[P+](c1ccccc1)(c1ccccc1)c1ccccc1 [ButylTPP] | – | not significantly protective | not significantly protective | not significantly protective | not significantly protective | not significantly protective | not significantly protective | – |
| Nc1ccc(C(=O)NCCC[P+](c2ccccc2)(c2ccccc2)c2ccccc2)cc1N [MitoGamide, [3-(3,4′-Diaminobenzoylamino)-prop-1-yl]triphenylphosphonium m esylate] | – | – | – | – | – | – | – | effect on STZ-induced decrease in body weight [5, 6]: neither of which were affected; effect on STZ-induced increase in blood glucose [5, 6]: neither of which were affected; heart rate [5, 6]: neither STZ- or MitoGamide-treatment affected heart rate; increase in diastolic stiffness in diabetic mice ([5]; MRI-corrected P/V loops, 10 mg/kg once per day via gavage): prevented; end diastolic volume impaired by STZ [5, 7]: not ameliorated; systolic ejection fraction [5, 7]: neither STZ nor MitoGamide had any effect; increase in end diastolic pressure in diabetic mice [5, 8]: prevented; left ventricular diastolic time constant (Tau Weiss) impaired by STZ [5, 8]: not ameliorated; oxidative damage in the heart (4-hydroxynonenal staining) ([5]; heart histology, antibody against 4HNE): decreased oxidative damage |
| N#CC(C#N)=NNc1ccc(OC(F)(F)F)cc1 [FCCP, carbonylcyanide p-trifluoromethoxyphenylhydrazone] | reduced | – | – | – | – | – | – | formation of MQE/QE under high glucose ([1]; high glucose, with uncoupler): blocked |
